Data from US11214557B2, “MAGL inhibitors” (H. Lundbeck A/S, priority 2018, dated 2022).

How the values were obtained:
[1] = molecular target: MAGL (Homo sapiens (Human), UniProt Q99685); experiment: In vitro competitive activity-based protein profiling (human proteomes); format: biochemical; conditions: human proteome; for inhibition at 1 µM: 1 μM inhibitor, read-out: MAGL % inh. 1 μM (human)
Procedure: In Vitro Competitive Activity-Based Protein Profiling
Proteomes (mouse brain membrane fraction or cell lysates for mouse assays; human prefrontal cortex or cell membrane fractions for human assays) (50 μL, 1.0 mg/mL total protein concentration) were preincubated with varying concentrations of inhibitors at 37° C. After 30 min, FP—Rh or HT-01 (1.0 μL, 50 μM in DMSO) was added and the mixture was incubated for another 30 min at 37° C. Reactions were quenched with SDS loading buffer (15 μL—4×) and run on SDS-PAGE.

[2] = molecular target: MAGL (Mus musculus (Mouse), UniProt O35678); experiment: Mouse brain proteomes from inhibitor treated mice (oral gavage, ABPP analysis); format: in vivo; conditions: 5 mg/kg oral gavage, 4 h after administration, read-out: MAGL % inh. 5 mg/kg (mouse)
Chain of MAGL (Mus musculus (Mouse), UniProt O35678) (O35678 whole entry): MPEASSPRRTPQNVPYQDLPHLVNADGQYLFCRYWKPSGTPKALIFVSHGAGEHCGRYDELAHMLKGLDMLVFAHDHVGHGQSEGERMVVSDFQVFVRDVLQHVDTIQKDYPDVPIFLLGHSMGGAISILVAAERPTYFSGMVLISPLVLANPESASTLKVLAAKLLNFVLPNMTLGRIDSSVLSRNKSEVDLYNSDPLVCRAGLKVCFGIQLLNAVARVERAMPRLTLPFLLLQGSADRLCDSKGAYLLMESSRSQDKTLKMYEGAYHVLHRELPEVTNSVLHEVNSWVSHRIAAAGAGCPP
Procedure: Preparation of Mouse Brain Proteomes from Inhibitor Treated Mice
Inhibitors were administered to wild-type C57Bl/6J by oral gavage in a vehicle of polyethylene glycol.

Chain of MAGL (Homo sapiens (Human), UniProt Q99685) (Q99685 whole entry): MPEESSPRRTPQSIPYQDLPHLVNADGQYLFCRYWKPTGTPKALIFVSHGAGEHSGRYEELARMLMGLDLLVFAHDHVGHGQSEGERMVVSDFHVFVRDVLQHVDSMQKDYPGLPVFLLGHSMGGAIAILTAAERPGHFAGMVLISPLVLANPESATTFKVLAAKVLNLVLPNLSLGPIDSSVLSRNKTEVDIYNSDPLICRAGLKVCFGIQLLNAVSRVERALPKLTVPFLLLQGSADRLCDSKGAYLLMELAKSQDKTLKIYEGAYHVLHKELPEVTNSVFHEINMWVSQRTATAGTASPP

| SMILES | inhibition at 1 µM [1] [%] | IC50 [1] [nM] | inhibition at 5 mg/kg [2] [%] | inhibition at 10 µM ([1]; 10 μM inhibitor, read-out: MAGL % inh. (human) @ 10 μM) [%] |
| --- | --- | --- | --- | --- |
| CC(C)(Oc1cc(Cl)ccc1CN1CCN(C(=O)OC(C(F)(F)F)C(F)(F)F)CC1)C(=O)O [Example 1, 2-(5-Chloro-2-((4-(((1,1,1,3,3,3-hexafluoropropan-2-yl)oxy)carbonyl)piperazin-1-yl)methyl)phenoxy)-2-methylpropanoic acid] | > 75 | < 50 | 0 to 25 | – |
| CC(C)(Oc1c(CN2CCN(C(=O)OC(C(F)(F)F)C(F)(F)F)CC2)cccc1C(F)(F)F)C(=O)O [Example 2, 2-(2-((4-(((1,1,1,3,3,3-Hexafluoropropan-2-yl)oxy)carbonyl)piperazin-1-yl)methyl)-6-(trifluoromethyl)phenoxy)-2-methylpropanoic acid] | > 75 | < 50 | > 75 | – |
| CC(C)(Oc1cc(C(F)(F)F)ccc1CN1CCN(C(=O)OC(C(F)(F)F)C(F)(F)F)CC1)C(=O)O [Example 3, 2-(2-((4-(((1,1,1,3,3,3-Hexafluoropropan-2-yl)oxy)carbonyl)piperazin-1-yl)methyl)-5-(trifluoromethyl)phenoxy)-2-methylpropanoic acid] | > 75 | < 50 | > 75 | – |
| CC(C)(COc1cc(C(F)(F)F)ccc1CN1CCN(C(=O)OC(C(F)(F)F)C(F)(F)F)CC1)C(=O)O [Example 4, 3-(2-((4-(((1,1,1,3,3,3-Hexafluoropropan-2-yl)oxy)carbonyl)piperazin-1-yl)methyl)-5-(trifluoromethyl)phenoxy)-22-dimethylpropanoic acid] | > 75 | < 50 | > 75 | – |
| CC(C)(COc1cc(CN2CCN(C(=O)OC(C(F)(F)F)C(F)(F)F)CC2)cc(C(F)(F)F)c1)C(=O)O [Example 5, 3-(3-((4-(((1,1,1,3,3,3-Hexafluoropropan-2-yl)oxy)carbonyl)piperazin-1-yl)methyl)-5-(trifluoromethyl)phenoxy)-2,2-dimethylpropanoic acid] | > 75 | < 50 | > 75 | – |
| CC(C)(Oc1cc(C(F)(F)F)ccc1CN1CCN(C(=O)OC(C(F)(F)F)C(F)(F)F)CC1)C(=O)NS(=O)(=O)C1CC1 [Example 6, 1,1,1,3,3,3-Hexafluoropropan-2-yl 4-(2-((1-(cyclopropanesulfonamido)-2-methyl-1-oxopropan-2-yl)oxy)-4-(trifluoromethyl)benzyl)piperazine-1-carboxylate] | > 75 | < 50 | 0 to 25 | – |
| O=C(O)COc1c(F)cccc1CN1CCN(C(=O)OC(C(F)(F)F)C(F)(F)F)CC1 [Example 11, 2-(2-Fluoro-6-((4-(((1,1,1,3,3,3-hexafluoropropan-2-yl)oxy)carbonyl)piperazin-1-yl)methyl)phenoxy)acetic acid] | 50 to 75 | – | – | – |
| CCOC(=O)OC(C)OC(=O)C(C)(C)Oc1cc(C(F)(F)F)ccc1CN1CCN(C(=O)OC(C(F)(F)F)C(F)(F)F)CC1 (stereo not drawn) [Example 12, 1,1,1,3,3,3-Hexafluoropropan-2-yl 4-(2-((1-(1-((ethoxycarbonyl)oxy)ethoxy)-2-methyl-1-oxopropan-2-yl)oxy)-4-(trifluoromethyl)benzyl)piperazine-1-carboxylate] | > 75 | – | – | – |
| CC(OC(=O)C(C)C)OC(=O)C(C)(C)Oc1cc(C(F)(F)F)ccc1CN1CCN(C(=O)OC(C(F)(F)F)C(F)(F)F)CC1 (stereo not drawn) [Example 13, 1,1,1,3,3,3-Hexafluoropropan-2-yl 4-(2-((1-(1-(isobutyryloxy)ethoxy)-2-methyl-1-oxopropan-2-yl)oxy)-4-(trifluoromethyl)benzyl)piperazine-1-carboxylate] | > 75 | – | – | – |
| Cc1ccc(CN2CCN(C(=O)OC(C(F)(F)F)C(F)(F)F)CC2)c(OC(C)(C)C(=O)O)c1Cl [Example 17, 2-(2-Chloro-6-((4-(((1,1,1,3,3,3-hexafluoropropan-2-yl)oxy)carbonyl)piperazin-1-yl)methyl)-3-methylphenoxy)-2-methylpropanoic acid] | > 75 | < 50 | 50 to 75 | – |
| CC(C)(Oc1cc(C#N)ccc1CN1CCN(C(=O)OC(C(F)(F)F)C(F)(F)F)CC1)C(=O)O [Example 26, 2-(5-Cyano-2-((4-(((1,1,1,3,3,3-hexafluoropropan-2-yl)oxy)carbonyl)piperazin-1-yl)methyl)phenoxy)-2-methylpropanoic acid] | > 75 | < 50 | – | – |
| COc1ccc(OC(C)(C)C(=O)O)cc1CN1CCN(C(=O)OC(C(F)(F)F)C(F)(F)F)CC1 [Example 35, 2-(3-((4-(((1,1,1,3,3,3-Hexafluoropropan-2-yl)oxy)carbonyl)piperazin-1-yl)methyl)-4-methoxyphenoxy)-2-methylpropanoic acid] | – | – | – | > 75 |
| O=C(O)COc1cc(CN2CCN(C(=O)OC(C(F)(F)F)C(F)(F)F)CC2)cc(OC(F)(F)F)c1 [Example 44, 2-(3-((4-(((1,1,1,3,3,3-Hexafluoropropan-2-yl)oxy)carbonyl)piperazin-1-yl)methyl)-5-(trifluoromethoxy)phenoxy) acetic acid] | > 75 | < 50 | – | – |
| C[C@@H](Oc1cc(C#N)ccc1CN1CCN(C(=O)OC(C(F)(F)F)C(F)(F)F)CC1)C(=O)O [Example 45, (R)-2-(5-Cyano-2-((4-(((1,1,1,3,3,3-hexafluoropropan-2-yl)oxy)carbonyl)piperazin-1-yl)methyl)phenoxy) propanoic acid] | > 75 | – | – | – |
| C[C@H](Oc1cc(C#N)ccc1CN1CCN(C(=O)OC(C(F)(F)F)C(F)(F)F)CC1)C(=O)O [Example 46, (S)-2-(5-Cyano-2-((4-(((1,1,1,3,3,3-hexafluoropropan-2-yl)oxy)carbonyl)piperazin-1-yl)methyl)phenoxy) propanoic acid] | > 75 | – | – | – |
| CC(C)(Oc1cc(CN2CCN(C(=O)OC(C(F)(F)F)C(F)(F)F)CC2)cc(C(F)(F)F)c1)C(=O)O [Example 47, 2-(3-((4-(((1,1,1,3,3,3-Hexafluoropropan-2-yl)oxy)carbonyl)piperazin-1-yl)methyl)-5-(trifluoromethyl)phenoxy)-2-methylpropanoic acid] | > 75 | < 50 | – | – |
| Cc1ccc(CN2CCN(C(=O)OC(C(F)(F)F)C(F)(F)F)CC2)c(OCC(C)(C)C(=O)O)c1F [Example 48, 3-(2-Fluoro-6-((4-(((1,1,1,3,3,3-hexafluoropropan-2-yl)oxy)carbonyl)piperazin-1-yl)methyl)-3-methylphenoxy)-2,2-dimethylpropanoic acid] | > 75 | < 50 | > 75 | – |
| CC(C)(C)C(=O)OCOC(=O)C(C)(C)Oc1cc(C(F)(F)F)ccc1CN1CCN(C(=O)OC(C(F)(F)F)C(F)(F)F)CC1 [Example 49, 1,1,1,3,3,3-Hexafluoropropan-2-yl 4-(2-((2-methyl-1-oxo-1-((pivaloyloxy)methoxy)propan-2-yl)oxy)-4-(trifluoromethyl)benzyl) piperazine-1-carboxylate] | > 75 | – | – | – |
| CCOC(=O)C(C)(C)Oc1cc(C(F)(F)F)ccc1CN1CCN(C(=O)OC(C(F)(F)F)C(F)(F)F)CC1 [Example 50, 1,1,1,3,3,3-Hexafluoropropan-2-yl 4-(2-((1-ethoxy-2-methyl-1-oxopropan-2-yl)oxy)-4-(trifluoromethyl)benzyl) piperazine-1-carboxylate] | > 75 | – | – | – |
| CC(C)OC(=O)OC(C)OC(=O)C(C)(C)Oc1cc(C(F)(F)F)ccc1CN1CCN(C(=O)OC(C(F)(F)F)C(F)(F)F)CC1 (stereo not drawn) [Example 51, 1,1,1,3,3,3-Hexafluoropropan-2-yl 4-(2-((1-(1-((isopropoxycarbonyl)oxy)ethoxy)-2-methyl-1-oxopropan-2-yl)oxy)-4-(trifluoromethyl)benzyl) piperazine-1-carboxylate] | > 75 | – | – | – |
